We go through three compounds from patent US4225595A, “Piperazine phosphates and phosphonate insecticides” (priority 1979, dated 1980).

Assay [1] concerns Black Bean Aphid [Aphis fabae (Scop.)]. Nature of the assay: Black Bean Aphid (BBA) plant spray assay, mortality after three days. The format is in vivo. The note with it: spray on infested nasturtium plants. From the text:
(§1) Screening was initiated at a maximal concentration level believed to be injurious to the insect population. The initial level should not be understood as representing a maximum at which a viable test for insecticidal activity can be conducted. […]
(§2) Nasturtium plants, Tropaeolum sp., approximately five centimeters (cm) high were transplanted into sandy loam soil in three-inch clay pots. Each pot was infested with 25-50 black bean aphids of mixed ages. Twenty-four hours later the pots were sprayed to the point of run-off with 50--50 acetone-water solutions of the test compounds.
(§3) Mortality rates were recorded after the infested plants had been held in the greenhouse for three days. Test concentrations ranged from 0.05% down to that at which 50% mortality occurs. Green Peach Aphid [Myzus persicae (Sulzer)], (GPA)
(§4) A less than 50% mortality rate at the initial concentration is indicated by a "greater than" sign (>). An approximately 50% mortality rate is indicated by the initial concentration rate. Other results are the dilutions at which an LD50 was achieved.

In assay [2] the test system is Green Peach Aphid [Myzus persicae (Sulzer)]. Nature of the assay: Green Peach Aphid (GPA) plant spray assay. The format is in vivo. The note with it: spray on infested radish plants, three days.
Text: (§5) Screening was initiated at a maximal concentration level believed to be injurious to the insect population. The initial level should not be understood as representing a maximum at which a viable test for insecticidal activity can be conducted.
as §2, §3
(§6) The insecticidal properties were tested in the same manner as for black beam aphids with the substitution of the nasturtiums by radish plants, Rhaphanus sativus. German Cockroach [Blatella germanica (Linne)], (GR)--Direct Spray
as §4

Assay [3] relates to German Cockroach [Blatella germanica (Linne)]. Nature of the assay: German Cockroach (GR) direct spray, mortality 7 days later. Conditions: one-month-old nymphs, initial 0.1%. The format is in vivo. The procedure:
as §5
(§7) Mobile insects, such as houseflies, German cockroaches, Lygus bugs, were contained for treatment in circular cardboard cages covered with cellophane on the bottom and tulle netting on the top.
as §6
(§8) Test compounds were diluted in a 50--50 acetonewater solution. Two cubic centimeters (cc) of the compound solutions were sprayed through a DeVilbiss type EGA hand spray gun into cages each containing 10 one-month-old German cockroach nymphs.
The percent mortality was recorded 7 days later. Test concentrations ranged from 0.1% down to that at which approximately 50% mortality occurs.
as §4

Assay [4] has as its system Lygus Bug [Lygus hesperus (Knight)]. As to the kind of experiment: Lygus Bug (LB) direct spray assay, mortality 48 hours later. The class given is in vivo. Conditions: adults, initial 0.05%. The procedure: as §5, §7, §8
Lygus Bug [Lygus hesperus (Knight)], (LB)--Direct Spray Assay
(§9) The species was treated in the same manner as the German cockroach. The cages contained one string beam pod and 10 adult Lygus bugs. The percent mortality was recorded 48 hours later. Test concentrations ranged from 0.05% down to that at which approximately 50% mortality occurs. Saltmarsh Caterpillar [Estigmene acrea (Drury)], (SMC)--Leaf Dip Assay
as §4

Assay [5] has as its system Saltmarsh Caterpillar [Estigmene acrea (Drury)]. As to the kind of experiment: Saltmarsh Caterpillar (SMC) leaf dip assay. The format is in vivo. Conditions: curly dock leaves, second-instar larvae, 48 hours + 5 days. The procedure:
as §5, §9
(§10) Test compounds were diluted in a 50--50 acetone-water solution. Approximately 1×1.5 inch sections of curly dock (Rumex crispus) leaves were immersed in the test solution for 2-3 seconds. After drying on a wire screen, the leaves were placed in petri dishes containing a moistened piece of filter paper. Each dish was infested with 5 secondinstar saltmarsh larvae.
(§11) Mortality of the larvae was recorded 48 hours later. A piece of synthetic media was added to the dishes containing surviving larvae. The larvae were then observed for 5 additional days for delayed effects of the test compounds. Test concentrations ranged from 0.05% down to that at which approximately 50% mortality occurs. Cabbage Looper [Trichoplusia ni (Hubner)], (CL)
as §4

In assay [6] the test system is Cabbage Looper [Trichoplusia ni (Hubner)]. As to the kind of experiment: Cabbage Looper (CL) leaf dip assay. Conditions: squash cotyledons, initial 0.1%. The class given is in vivo. As for the experimental part: as §5, §10, §11
The effectiveness of the compounds was tested in the same manner as for the saltmarsh caterpillar with two exceptions. Cotyledons of hyzini squash (Calabacita abobrinha, were substituted for curly dock leaves and the initial test concentration was 0.1%. Tobacco Budworm [Heliothis virescens (Fabricius)], (TBW)
as §4

The test system of assay [7] is Southern House Mosquito Larvae (Culex pipiens quinquefasciatus). Nature of the assay: Southern House Mosquito larvae (M) assay, mortality 48 hours after treatment. The format is in vivo. Conditions: third-instar larvae in aqueous solution, initial 1 ppm, read-out: LD50 M. As for the experimental part: as §5
Tobacco budworms were tested in the same manner as the cabbage looper. Romaine lettuce (Latuca sativa) leaves provided the substrate. Southern House Mosquito Larvae (Culex pipiens quinquefasciatus), (M)
Ten third-instar larvae were placed in a six ounce wax paper cup containing 100 ml of an aqueous solution of the test compounds at a concentration of 1 ppm. The treated larvae were stored at 70° F. (21.5° C.) and mortality was recorded 48 hours after treatment. Two-Spotted Mite [Tetranychus urticae (Koch)], (2SM)
as §4

The subject of assay [8] is Two-Spotted Mite [Tetranychus urticae (Koch)]. As to the kind of experiment: Two-Spotted Mite (2SM) plant dip assay, mortality seven days later. The note with it: for LD50 2SM Adults: adult mites; for LD50 2SM Eggs: eggs (nymphs hatching after treatment). The format is in vivo.
Text: as §1
Pinto bean plants (Phaseolus vulgaris) approximately 10 cm high were transplanted into sandy loam soil in three-inch clay pots. The plants were thoroughly infested with two-spotted mites of mixed ages and sexes. Twenty-four hours after infestation the plants were inverted and dipped for 2-3 seconds in 50--50 acetone-water solutions of the test compounds.
Mortality ratings for both adult mites and nymphs hatching after treatment were taken seven days later. Test concentrations ranged from 0.05% down to that at which 50% mortality occurs.
as §4

Assay [9] has as its system Housefly [Musca domestica (Linn.)]. The note with it: topical, 48 h.
Protocol: Housefly [Musca domestica (Linn.)], (HF)--Contact Residue Assay
Test compounds were diluted in acetone and aliquots were pipetted onto the bottom of 55×15 millimeter (mm) aluminum dishes. One ml of acetone containing 0.02% peanut oil was added to each dish to insure even spreading. After all solvents had evaporated the dishes were placed in cages each containing 25 one to two day old female houseflies. Each cage contained a sugar-water cotton plug for sustanence of the flies.
Mortality rates were recorded after 48 hours. Test levels ranged from 10 μ/25 .female. houseflies down to that at which approximately 50% mortality occurs.
Assay [10] deals with Tobacco Budworm [Heliothis virescens (Fabricius)]. Conditions: leaf dip, Romaine lettuce leaves.
Protocol: Mortality of the larvae was recorded 48 hours later. A piece of synthetic media was added to the dishes containing surviving larvae. […] Test concentrations ranged from 0.05% down to that at which approximately 50% mortality occurs.

Consider `CCOP(=S)(OCC)SCC(=O)N1CCN(C(=O)OC(C)C)CC1` [Compound 19, 1-N-isopropoxycarbo-4-N-O,O-diethylphosphorodithioylacetyl piperazine], for which the “LD50 BBA” value in [1] is on record as “.0006%”. Further, the “LD50 GPA” value in [2] is reported as “.006%”. Moreover, the “LD50 GR” value in assay [3] is listed as “> .1%”. Moreover, in [4], the “LD50 LB” value was “> .05%”. Besides, in assay [5], the “LD50 SMC” value was “> .05%”. For the same compound, the “LD50 CL” value in assay [6] is recorded as “> .1%”. In addition, in [7], the LC50 is greater than 1 µg/mL. Besides, in assay [8], the “LD50 2SM Adults” value is given as “< .05%” and the “LD50 2SM Eggs” value is listed as “< .05%”. Moreover, the “LD50 HF” value in [9] is given as greater than 10 μg/25. The “LD50 TBW” value in assay [10] was “> .1%”.

Regarding `CCOP(=O)(OCC)SCC(=O)N1CCN(C(=O)OC(C)C)CC1` [Compound 20, 1-N-isopropoxycarbo-4-N-O,O-diethylphosphoromonothioylacetyl piperazine], in assay [1], the “LD50 BBA” value is given as “.0005%”. In [2], the “LD50 GPA” value is “.008%”. Moreover, in assay [3], the “LD50 GR” value is on record as “> .1%”. In addition, the “LD50 LB” value in assay [4] was “> .05%”. The “LD50 SMC” value in assay [5] was “> .05%”. Also, the “LD50 CL” value in assay [6] was “> .1%”. Also, in [7], the LC50 is greater than 1 µg/mL. In [8], the “LD50 2SM Adults” value is on record as “< .05%” and the “LD50 2SM Eggs” value was “< .05%”. Also, in assay [9], the “LD50 HF” value is greater than 10 μg/25. Also, the “LD50 TBW” value in assay [10] is reported as “.1%”.

For `CCOP(=O)(OCC)SCC(=O)N1CCN(C(=O)SC)CC1` [Compound 28, 1-N-methylthiocarbo-4-N-O,O-diethylphosphoromonothioylacetyl piperazine], in assay [1], the “LD50 BBA” value is recorded as “.0002%”. Moreover, the “LD50 GPA” value in assay [2] is on record as “.008%”. Moreover, the “LD50 GR” value in [3] is listed as “> .1%”. Moreover, the “LD50 LB” value in [4] is “> .05%”. Also, the “LD50 SMC” value in assay [5] is given as “> .05%”. The “LD50 CL” value in [6] is “> .1%”. In addition, in assay [7], the LC50 was greater than 1 µg/mL. Further, in [8], the “LD50 2SM Adults” value is recorded as “< .05%” and the “LD50 2SM Eggs” value is given as “< .05%”. Moreover, in assay [9], the “LD50 HF” value is on record as greater than 10 μg/25. In addition, the “LD50 TBW” value in [10] is recorded as “> .1%”.
